Target: T1, recombinant human GST-Syk (Homo sapiens, UniProt P43405)
T1 construct: purchased Carna Biosciences 08-176
Assay: Homogeneous Time-Resolved Fluorescence (HTRF) assay for the recombinant human Syk enzyme
Type: biochemical
Conditions: recombinant human GST-Syk 5 pM, ATP 25 μM, 10-dose titration 10 μM to 0.508 nM; read-out: rhSYK Activity IC50
How it was run: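 GST-hSyk fusion protein phosphorylated a peptide for 45 min at room temperature. The reaction was quenched with 2 nM Eu-anti-phosphotyrosine antibody and 70 nM SA-APC in 15 mM Tris pH 7.5, 40 mM EDTA, 0.01% Tween 20. The HTRF signal was read after 30 min.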

| SMILES | IC50 |
| --- | --- |
| Cc1cc(Nc2cc(C(F)(F)F)ccn2)nc(-c2cn(CC(C)(O)CO)nn2)c1 (stereo not drawn) [Example 10.15, 2-methyl-3-[4-(4-methyl-6-{[4-(trifluoromethyl)pyridin-2-yl]amino}pyridin-2-yl)-1H-1,2,3-triazol-1-yl]propane-1,2-diol] | 0.0072 µM |
| Cc1cc(Nc2cc(C(F)(F)F)ccn2)nc(-c2cn(C/C=C/c3ccncc3)nn2)c1 [Example 5.33, 4-methyl-6-{1-[(2E)-3-pyridin-4-ylprop-2-en-1-yl]-1H-1,2,3-triazol-4-yl}-N-[4-(trifluoromethyl)pyridin-2-yl]pyridin-2-amine] | 0.0585 µM |
| Cc1cc(Nc2nccc(C(F)(F)F)n2)cc(-c2cn(C3COCC3O)nn2)c1 (single isomer, unassigned) [Example 4.5, 4-[4-(3-methyl-5-{[4-(trifluoromethyl)pyrimidin-2-yl]amino}phenyl)-1H-1,2,3-triazol-1-yl]tetrahydrofuran-3-ol] | 0.0612 µM |
| Cc1cc(Nc2nccc(C(F)F)n2)cc(-c2cn(CC(C)(O)CC#N)nn2)c1 (single isomer, unassigned) [Example 27.1, 4-(4-(3-((4-(difluoromethyl)pyrimidin-2-yl)amino)-5-methylphenyl)-1H-1,2,3-triazol-1-yl)-3-hydroxy-3-methylbutanenitrile] | 0.0197 µM |
| Cc1cc(Nc2cc(C(F)(F)F)ccn2)nc(-c2cn(C(C(=O)O)c3ccccc3)nn2)c1 (stereo not drawn) [Example 3.11, [4-(4-methyl-6-{[4-(trifluoromethyl)pyridin-2-yl]amino}pyridin-2-yl)-1H-1,2,3-triazol-1-yl](phenyl)acetic acid] | 0.0051 µM |
| CCOC(=O)C1(n2cc(-c3cc(C)cc(Nc4cc(C(F)(F)F)ccn4)n3)nn2)CCC1 [Example 8.2, ethyl 1-[4-(4-methyl-6-{[4-(trifluoromethyl)-pyridin-2-yl]amino}-pyridin-2-yl)-1H-1,2,3-triazol-1-yl]cyclobutane-carboxylate] | 0.0718 µM |
| COC(=O)[C@H]1CC[C@](O)(c2cn(-c3cc(C)cc(Nc4nccc(C(F)(F)F)n4)c3)nn2)CC1(C)C [Example 15.10, methyl (1S,4R)-4-hydroxy-2,2-dimethyl-4-[1-(3-methyl-5-{[4-(trifluoromethyl)pyrimidin-2-yl]amino}phenyl)-1H-1,2,3-triazol-4-yl]cyclohexanecarboxylate] | 0.179 µM |
| Cc1cc(Nc2cc(C(F)(F)F)ccn2)nc(-c2cn(C[C@H]3CNC(=O)O3)nn2)c1 [Example 5.102, (5R)-5-{[4-(4-methyl-6-{[4-(trifluoromethyl)pyridin-2-yl]amino}pyridin-2-yl)-1H-1,2,3-triazol-1-yl]methyl}-1,3-oxazolidin-2-one] | 0.0011 µM |
| Cc1cc(Nc2cc(C(F)(F)F)ccn2)nc(-c2cn(C(C)C(=O)N3CCc4[nH]c5c(Cl)cccc5c4C3)nn2)c1 (stereo not drawn) [Example 1.41, 6-{1-[2-(6-chloro-1,3,4,5-tetrahydro-2H-pyrido[4,3-b]indol-2-yl)-1-methyl-2-oxoethyl]-1H-1,2,3-triazol-4-yl}-4-methyl-N-[4-(trifluoromethyl)pyridin-2-yl]pyridin-2-amine] | 0.131 µM |
| CCC(O)C(O)Cn1cc(-c2cc(C)cc(Nc3cc(C(F)(F)F)ccn3)n2)nn1 (stereo not drawn) [Example 10.7, 1,4,5-trideoxy-1-[4-(4-methyl-6-{[4-(trifluoromethyl)pyridin-2-yl]amino}pyridin-2-yl)-1H-1,2,3-triazol-1-yl]pentitol] | 0.0304 µM |
| Cc1cc(Nc2nccc(C(F)(F)F)n2)cc(-c2ncnn2C[C@H](O)CO)c1 [Example 2.15, (2S)-3-[5-(3-methyl-5-{[4-(trifluoromethyl)pyrimidin-2-yl]amino}phenyl)-1H-1,2,4-triazol-1-yl]propane-1,2-diol] | 3.15 µM |
| Cc1cc(Nc2nccc(C(F)F)n2)cc(-c2cn(CC(C)(O)C(C)(C)O)nn2)c1 (stereo not drawn) [Example 21.18, 1-[4-(3-{[4-(difluoromethyl)pyrimidin-2-yl]amino}-5-methylphenyl)-1H-1,2,3-triazol-1-yl]-2,3-dimethylbutane-2,3-diol] | 0.0385 µM |
| Cc1cc(Nc2cc(C(F)(F)F)ccn2)nc(-c2cn(C[C@H](O)C(=O)O)nn2)c1 [Example 4.19, (2S)-2-hydroxy-3-[4-(4-methyl-6-{[4-(trifluoromethyl)pyridin-2-yl]amino}pyridin-2-yl)-1H-1,2,3-triazol-1-yl]propanoic acid] | 0.0149 µM |
| Cc1cc(Nc2cc(C(F)(F)F)ccn2)nc(-c2cn(C3CCNC(=O)CC3)nn2)c1 (racemic) [Example 11.1, 5-[4-(4-Methyl-6-{[4-(trifluoromethyl)pyridin-2-yl]amino}pyridin-2-yl)-1H-1,2,3-triazol-1-yl]azepan-2-one] | 0.0212 µM |
| Cc1ccnc(Nc2cc(C)cc(-c3cn(C[C@H](C)CO)nn3)n2)c1 [Example 5.16, (2S)-2-methyl-3-(4-{4-methyl-6-[(4-methylpyridin-2-yl)amino]pyridin-2-yl}-1H-1,2,3-triazol-1-yl)propan-1-ol] | 0.235 µM |
| Cc1cc(Nc2ncc(F)c(C(F)F)n2)cc(-c2cn(CC(C)(O)C(C)(C)O)nn2)c1 (stereo not drawn) [Example 21.15, 1-[4-(3-{[4-(difluoromethyl)-5-fluoropyrimidin-2-yl]amino}-5-methylphenyl)-1H-1,2,3-triazol-1-yl]-2,3-dimethylbutane-2,3-diol] | 0.0475 µM |
| Cc1cc(Nc2cc(C(F)F)ccn2)nc(-c2cn(C(C)C3CNC(=O)O3)nn2)c1 (single isomer, unassigned) [Example 7.10, 5-(1-(4-(6-((4-(difluoromethyl)pyridin-2-yl)amino)-4-methylpyridin-2-yl)-1H-1,2,3-triazol-1-yl)ethyl)oxazolidin-2-one] | 0.0017 µM |
| Cc1cc(Nc2cc(C(F)(F)F)ccn2)nc(-c2cn(CC#N)nn2)c1 [Example 5.92, [4-(4-methyl-6-{[4-(trifluoromethyl)pyridin-2-yl]amino}pyridin-2-yl)-1H-1,2,3-triazol-1-yl]acetonitrile] | 0.022 µM |
| Cc1cc(Nc2nccc(C(F)F)n2)cc(-c2cn(C3CCCCC3(C)O)nn2)c1 (single isomer, unassigned) [Example 7.20, 2-[4-(3-{[4-(difluoromethyl)pyrimidin-2-yl]amino}-5-methylphenyl)-1H-1,2,3-triazol-1-yl]-1-methylcyclohexanol] | 0.0154 µM |
| Cc1cc(Nc2nccc(C(F)F)n2)cc(-c2cn(CC3(O)CNC(=O)C3)nn2)c1 (single isomer, unassigned) [Example 31.2, 4-((4-(3-((4-(Difluoromethyl)pyrimidin-2-yl)amino)-5-methylphenyl)-1H-1,2,3-triazol-1-yl)methyl)-4-hydroxypyrrolidin-2-one] | 0.0047 µM |
| Cc1cc(Nc2ncc(F)c(C(F)F)n2)cc(-c2cn(CC3OC(=O)NC34CC4)nn2)c1 (single isomer, unassigned) [Example 7.33, 7-{[4-(3-{[4-(difluoromethyl)-5-fluoropyrimidin-2-yl]amino}-5-methylphenyl)-1H-1,2,3-triazol-1-yl]methyl}-6-oxa-4-azaspiro[2.4]heptan-5-one] | 0.0111 µM |
| CCOC(=O)Cn1cc(-c2cc(C)cc(Nc3cc(C(F)(F)F)ccn3)n2)nn1 [Example 5.100, ethyl [4-(4-methyl-6-{[4-(trifluoromethyl)pyridin-2-yl]amino}pyridin-2-yl)-1H-1,2,3-triazol-1-yl]acetate] | 0.0277 µM |
| Cc1cc(Nc2cc(C(F)(F)F)ccn2)nc(-c2cn(C3CCC(C(=O)O)C(C)(C)C3)nn2)c1 (single isomer, unassigned) [Example 3.9, 2,2-dimethyl-4-[4-(4-methyl-6-{[4-(trifluoromethyl)pyridin-2-yl]amino}pyridin-2-yl)-1H-1,2,3-triazol-1-yl]cyclohexanecarboxylic acid] | 0.003 µM |
| Cc1cc(Nc2cc(C(F)(F)F)ccn2)nc(-c2cn(CCS(C)(=O)=O)nn2)c1 [Example 5.96, 4-methyl-6-{1-[2-(methylsulfonyl)ethyl]-1H-1,2,3-triazol-4-yl}-N-[4-(trifluoromethyl)pyridin-2-yl]pyridin-2-amine] | 0.0471 µM |
| C=C(C)Cn1cc(-c2cc(C)cc(Nc3cc(C(F)(F)F)ccn3)n2)nn1 [Example 5.40, 4-methyl-6-[1-(2-methylprop-2-en-1-yl)-1H-1,2,3-triazol-4-yl]-N-[4-(trifluoromethyl)pyridin-2-yl]pyridin-2-amine] | 0.0289 µM |
| Cc1cc(Nc2cc(C(F)F)ccn2)nc(-c2cn(C3CCCC(O)C3O)nn2)c1 (stereo not drawn) [Example 21.38, 3-(4-(6-((4-(difluoromethyl)pyridin-2-yl)amino)-4-methylpyridin-2-yl)-1H-1,2,3-triazol-1-yl)cyclohexane-1,2-diol] | 0.0037 µM |
| COC(=O)C1CCC(O)(Cn2cc(-c3cc(C)cc(Nc4cc(C(F)(F)F)ccn4)n3)nn2)CC1(C)C (stereo not drawn) [Example 4.12, methyl 4-hydroxy-2,2-dimethyl-4-{[4-(4-methyl-6-{[4-(trifluoromethyl)pyridin-2-yl]amino}pyridin-2-yl)-1H-1,2,3-triazol-1-yl]methyl}cyclohexanecarboxylate] | 0.145 µM |
| Cc1cc(Nc2cc(C(F)F)ccn2)nc(-c2cn(C(C)C(C)(O)CO)nn2)c1 (single isomer, unassigned) [Example 30.5, 3-[4-(6-{[4-(difluoromethyl)pyridin-2-yl]amino}-4-methylpyridin-2-yl)-1H-1,2,3-triazol-1-yl]-2-methylbutane-1,2-diol] | 0.0027 µM |
| Cc1cc(Nc2cc(C(F)(F)F)ccn2)nc(-c2cn(CC(O)C(O)c3ccccc3)nn2)c1 (stereo not drawn) [Example 10.1, 3-(4-(4-Methyl-6-((4-(trifluoromethyl)pyridin-2-yl)amino)pyridin-2-yl)-1H-1,2,3-triazol-1-yl)-1-phenylpropane-1,2-diol] | 0.0088 µM |
| Cc1cc(Nc2cc(C(F)(F)F)ccn2)nc(-c2cn(C3CCCCC(O)C3O)nn2)c1 (single isomer, unassigned) [Example 10.5, 3-[4-(4-methyl-6-{[4-(trifluoromethyl)pyridin-2-yl]amino}pyridin-2-yl)-1H-1,2,3-triazol-1-yl]cycloheptane-1,2-diol] | 0.0026 µM |

From patent US9586931B2 (Merck Sharp & Dohme Corp., priority 2012, dated 2017)
